# Test results reported in patent US20250222146A1, “Radiopharmaceuticals Targeting Somatostatin Receptor 2 and Uses Thereof” (RayzeBio, Inc., priority 2023, published 2025).
# Where two headings read alike, the source gives them in different places. Numbered stars: 1 amine (or outer) side, 2 acyl side, 3 side chain; on linkers, the order of the positions; unused ones are H or OH. Square brackets hold non-standard residues; d marks the D form. Side chains are listed from the residue outwards. Peptide text beside a SMILES is read from it. * marks the point of attachment. DOTA(Lu)NH(CH2)6NHCOCH2 = O=C(CN1CCN2CCN3CCN(CC1)CC(=O)[O][Lu]([O]C(=O)C2)[O]C(=O)C3)NCCCCCCNC(=O)C*; X10 = O=C(CN1CCN2CCN3CCN(CC1)CC(=O)[O][Lu]([O]C(=O)C2)[O]C(=O)C3)NCC12CCC(C(=O)*)(CC1)CC2; X14 = O=C(CN1CCN2CCN3CCN(CC1)CC(=O)[O][Lu]([O]C(=O)C2)[O]C(=O)C3)NCC1CCC(C(=O)*)CC1; X12 = O=C1CN2CCN3CCN(CC(=O)N4CCC(CC(=O)*)CC4)CCN(CC2)CC(=O)[O][Lu]([O]1)[O]C(=O)C3; X24 = O=C1CN2CCN3CCN(CC(=O)N4CC(CC(=O)*)C4)CCN(CC2)CC(=O)[O][Lu]([O]1)[O]C(=O)C3; X9 = O=C1CN2CCN3CCN(CC(=O)N4CC(C(=O)*)C4)CCN(CC2)CC(=O)[O][Lu]([O]1)[O]C(=O)C3; DOTA(Lu) = O=C1CN2CCN3CCN(CC(=O)*)CCN(CC2)CC(=O)[O][Lu]([O]1)[O]C(=O)C3; X7 = O=C1CN2CCN3CCN(CC2)[C@H](CCC(=O)*)C(=O)[O][Ga]([O]1)[O]C(=O)C3; Ala(piperidin-4-yl) = O=C([C@H](CC1CCN([*:3])CC1)N[*:1])[*:2]; dTrp(βS-Me) = C[C@@H](c1c[nH]c2ccccc12)[C@@H](N)C(=O)O; X11 = O=C1CN2CCN(CCN(CC(=O)*)CC2)CC(=O)[O][Ga+][O]1; X8 = O=C([C@@H](Cc1n[nH]c2ccccc12)N[*:1])[*:2]; NMeLys(Me) = CNCCCC[C@H](NC)C(=O)O; NMehLys = CN[C@@H](CCCCCN)C(=O)O; Trx = NC[C@H]1CC[C@H](C(=O)O)CC1; Lys(Me) = CNCCCC[C@H](N)C(=O)O; NMehCys = CN[C@@H](CCS)C(=O)O; NMeK = CN[C@@H](CCCCN)C(=O)O; Inp = O=C(O)C1CCNCC1
# Legend:
# SSTR2 = SSTR2 (Homo sapiens, UniProt P30874); assay: SSTR binding affinity by radioligand binding competition assay ([125I]-Tyr11-Somatostatin, membrane extracts); conditions: radioligand competition, [125I]-Tyr11-Somatostatin 0.1 nM, membrane extracts, Ki from IC50 by Cheng Prusoff
# Sequence of SSTR2 (P30874 whole entry): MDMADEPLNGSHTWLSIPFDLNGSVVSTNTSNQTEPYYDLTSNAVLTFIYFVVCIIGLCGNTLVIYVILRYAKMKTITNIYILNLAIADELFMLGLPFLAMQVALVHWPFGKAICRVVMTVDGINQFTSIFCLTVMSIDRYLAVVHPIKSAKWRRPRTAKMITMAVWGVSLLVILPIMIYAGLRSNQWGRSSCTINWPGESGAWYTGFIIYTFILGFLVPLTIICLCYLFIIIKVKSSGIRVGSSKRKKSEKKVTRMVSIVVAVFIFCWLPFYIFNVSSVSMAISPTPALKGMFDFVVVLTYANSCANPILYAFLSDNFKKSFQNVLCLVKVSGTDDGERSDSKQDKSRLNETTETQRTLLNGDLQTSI
# [1] = Peptide conjugate biodistribution measured by tissue PK (ICP-MS, % ID/g in kidney tissue at 2 h); assay type: in vivo; conditions: 2 h time point, mouse
# Protocol: Macrocyclic peptides and conjugates described herein were tested for tissue distribution by measuring concentrations in tissues by MS using in vivo animal models. Peptide metal chelates were dosed to animals and tissues were collected at specific time points based off the peptide PK profile. The samples were then analyzed by MS and the results reported as % ID/g (% injected dose/gram). Radiopharmaceutical conjugates of the present disclosure have improved tissue distribution for radiopharmaceutical therapeutics.
# Peptide metal chelate doses were suspended in phosphate-buffered saline (PBS) containing 0.1% Tween 80. An injection volume of 100 μL per mouse was used, and blood and tissue samples were collected, weighed, and stored frozen at-80° C. until analysis. Tissue samples were digested with concentrated nitric acid in a microwave digestion apparatus. The sample digest was diluted with internal standard and analyzed using inductively coupled plasma mass spectrometry (ICP-MS). ICP-MS is an elemental analysis technique used to measure elements by using argon plasma to convert the sample into ions that are then measured using the mass spectrometer. Calibration standards were used for quantification of element(s) of interest by constructing a multipoint standard curve covering the range of analyte concentrations anticipated in the samples (typical range is 500 ppt to 0.1 ppt). A single quadrupole instrument (iCAP RQ, Thermo Fisher) ICP-MS was coupled with a Teledyne CETAC autosampler and used for the sample analysis.
# The % ID/g of conjugate in kidney tissue at the 2-hour time point (2 h) was quantified for various conjugates, and the results are shown in Table 10. Lower kidney tissue % ID/g values indicate lower distribution to the kidney after administration of the conjugate.
SMILES,Ki (SSTR2; SSTR2 Ki) [nM],tissue uptake at 2 h [1] [%ID/g],Ki (SSTR2; read-out: SSTR2 Ki) [nM]
C[C@@H](O)[C@@H]1NC(=O)[C@H](CCCCN)NC(=O)[C@@H](Cc2c[nH]c3ccccc23)NC(=O)[C@H](Cc2ccc(O)cc2)NC(=O)[C@H](CCSCC(=O)NCCCCCCNC(=O)CN2CCN3CCN4CCN(CC2)CC(=O)[O][Lu]([O]C(=O)C3)[O]C(=O)C4)N(C)C(=O)[C@H](Cc2ccccc2)NC1=O [RB-0003149],< 1,8.4,
C[C@@H](O)[C@@H]1NC(=O)[C@H](CCCCN)NC(=O)[C@H](Cc2c[nH]c3ccccc23)NC(=O)[C@H](Cc2ccc(O)cc2)NC(=O)[C@H](CCSCC(=O)NCCOCCOCCOCCNC(=O)CN2CCN3CCN4CCN(CC2)CC(=O)[O][Lu]([O]C(=O)C3)[O]C(=O)C4)N(C)C(=O)[C@H](Cc2ccccc2)NC1=O [RB-0005502],,9.4,< 1
C[C@@H](O)[C@@H]1NC(=O)[C@H](CC2CCNCC2)NC(=O)[C@@H]([C@@H](C)c2c[nH]c3ccccc23)NC(=O)[C@H](Cc2ccc(O)cc2)NC(=O)[C@H](CCSCC(=O)NCCCCCCNC(=O)CN2CCN3CCN4CCN(CC2)CC(=O)[O][Lu]([O]C(=O)C3)[O]C(=O)C4)N(C)C(=O)[C@H](Cc2ccccc2)NC1=O [RB-0005760] (cyclo(F[NMehCys](DOTA(Lu)NH(CH2)6NHCOCH2)Y[dTrp(βS-Me)][Ala(piperidin-4-yl)]T)),,2.7,< 1
CNCCCC[C@@H]1NC(=O)[C@@H](Cc2c[nH]c3ccccc23)NC(=O)[C@H](Cc2ccc(O)cc2)NC(=O)[C@H](CCSCC(=O)NCCCCCCNC(=O)CN2CCN3CCN4CCN(CC2)CC(=O)[O][Lu]([O]C(=O)C3)[O]C(=O)C4)N(C)C(=O)[C@H](Cc2ccccc2)NC(=O)[C@H]([C@@H](C)O)NC1=O [RB-0005799] (cyclo(F[NMehCys](DOTA(Lu)NH(CH2)6NHCOCH2)Y[dW][Lys(Me)]T)),,2.3,< 1
C[C@@H](O)[C@@H]1NC(=O)[C@H](CC2CCNCC2)NC(=O)[C@@H]([C@@H](C)c2c[nH]c3ccccc23)NC(=O)[C@H](Cc2ccc(O)cc2)NC(=O)[C@H](CCCCNC(=O)CN2CCN3CCN4CCN(CC2)CC(=O)[O][Lu]([O]C(=O)C3)[O]C(=O)C4)N(C)C(=O)[C@H](Cc2ccccc2)NC1=O [RB-0006176] (cyclo(F[NMeK](DOTA(Lu))Y[dTrp(βS-Me)][Ala(piperidin-4-yl)]T)),,1.6,
C[C@@H](O)[C@@H]1NC(=O)[C@H](CC2CCNCC2)NC(=O)[C@@H]([C@@H](C)c2c[nH]c3ccccc23)NC(=O)[C@H](Cc2ccc(O)cc2)NC(=O)[C@H](CCCCCNC(=O)CN2CCN3CCN4CCN(CC2)CC(=O)[O][Lu]([O]C(=O)C3)[O]C(=O)C4)N(C)C(=O)[C@H](Cc2ccccc2)NC1=O [RB-0006449] (cyclo(F[NMehLys](DOTA(Lu))Y[dTrp(βS-Me)][Ala(piperidin-4-yl)]T)),,,< 1
C[C@@H](O)[C@@H]1NC(=O)[C@H](CC2CCNCC2)NC(=O)[C@@H]([C@@H](C)c2c[nH]c3ccccc23)NC(=O)[C@H](Cc2ccc(O)cc2)NC(=O)[C@H](CCCCNC(=O)C2CCN(C(=O)CN3CCN4CCN5CCN(CC3)CC(=O)[O][Lu]([O]C(=O)C5)[O]C(=O)C4)CC2)N(C)C(=O)[C@H](Cc2ccccc2)NC1=O [RB-0006452] (cyclo(F[NMeK]([Inp-DOTA(Lu)])Y[dTrp(βS-Me)][Ala(piperidin-4-yl)]T)),,,1 to 3.33
C[C@@H](O)[C@@H]1NC(=O)[C@H](CC2CCNCC2)NC(=O)[C@@H]([C@@H](C)c2c[nH]c3ccccc23)NC(=O)[C@H](Cc2ccc(O)cc2)NC(=O)[C@H](CCCCNC(=O)C2CN(C(=O)CN3CCN4CCN5CCN(CC3)CC(=O)[O][Lu]([O]C(=O)C5)[O]C(=O)C4)C2)N(C)C(=O)[C@H](Cc2ccccc2)NC1=O [RB-0006455] (cyclo(F[NMeK](X9)Y[dTrp(βS-Me)][Ala(piperidin-4-yl)]T)),,,1 to 3.33
C[C@@H](O)[C@@H]1NC(=O)[C@H](CC2CCNCC2)NC(=O)[C@@H]([C@@H](C)c2c[nH]c3ccccc23)NC(=O)[C@H](Cc2ccc(O)cc2)NC(=O)[C@H](CCCCNC(=O)CC2CCN(C(=O)CN3CCN4CCN5CCN(CC3)CC(=O)[O][Lu]([O]C(=O)C5)[O]C(=O)C4)CC2)N(C)C(=O)[C@H](Cc2ccccc2)NC1=O [RB-0006458] (cyclo(F[NMeK](X12)Y[dTrp(βS-Me)][Ala(piperidin-4-yl)]T)),,,3.33 to 10
C[C@@H](O)[C@@H]1NC(=O)[C@H](CC2CCNCC2)NC(=O)[C@@H]([C@@H](C)c2c[nH]c3ccccc23)NC(=O)[C@H](Cc2ccc(O)cc2)NC(=O)[C@H](CCCCNC(=O)CC2CN(C(=O)CN3CCN4CCN5CCN(CC3)CC(=O)[O][Lu]([O]C(=O)C5)[O]C(=O)C4)C2)N(C)C(=O)[C@H](Cc2ccccc2)NC1=O [RB-0006461] (cyclo(F[NMeK](X24)Y[dTrp(βS-Me)][Ala(piperidin-4-yl)]T)),,,3.33 to 10
C[C@@H](O)[C@@H]1NC(=O)[C@H](CC2CCNCC2)NC(=O)[C@@H]([C@@H](C)c2c[nH]c3ccccc23)NC(=O)[C@H](Cc2ccc(O)cc2)NC(=O)[C@H](CCCCNC(=O)C2CCC(CNC(=O)CN3CCN4CCN5CCN(CC3)CC(=O)[O][Lu]([O]C(=O)C4)[O]C(=O)C5)CC2)N(C)C(=O)[C@H](Cc2ccccc2)NC1=O (stereo partly shown) [RB-0006464] (cyclo(F[NMeK](X14)Y[dTrp(βS-Me)][Ala(piperidin-4-yl)]T)),,,1 to 3.33
C[C@@H](O)[C@@H]1NC(=O)[C@H](CC2CCNCC2)NC(=O)[C@@H]([C@@H](C)c2c[nH]c3ccccc23)NC(=O)[C@H](Cc2ccc(O)cc2)NC(=O)[C@H](CCCCNC(=O)[C@H]2CC[C@H](CNC(=O)CC[C@@H]3C(=O)[O][Ga]4[O]C(=O)CN5CCN(CCN3CC5)CC(=O)[O]4)CC2)N(C)C(=O)[C@H](Cc2ccccc2)NC1=O [RB-0006470] (cyclo(F[NMeK]([Trx-X7])Y[dTrp(βS-Me)][Ala(piperidin-4-yl)]T)),,,1 to 3.33
C[C@@H](O)[C@@H]1NC(=O)[C@H](CC2CCNCC2)NC(=O)[C@@H]([C@@H](C)c2c[nH]c3ccccc23)NC(=O)[C@H](Cc2ccc(O)cc2)NC(=O)[C@H](CCCCNC(=O)CCC2C(=O)[O][Ga]3[O]C(=O)CN4CCN(CCN2CC4)CC(=O)[O]3)N(C)C(=O)[C@H](Cc2ccccc2)NC1=O (stereo partly shown) [RB-0006476],,,3.33 to 10
C[C@@H](O)[C@@H]1NC(=O)[C@H](CC2CCNCC2)NC(=O)[C@@H]([C@@H](C)c2c[nH]c3ccccc23)NC(=O)[C@H](Cc2ccc(O)cc2)NC(=O)[C@H](CCCCNC(=O)CN2CCN3CCN(CC2)CC(=O)[O][Ga+][O]C(=O)C3)N(C)C(=O)[C@H](Cc2ccccc2)NC1=O [RB-0006488] (cyclo(F[NMeK](X11)Y[dTrp(βS-Me)][Ala(piperidin-4-yl)]T)),,,1 to 3.33
C[C@@H](O)[C@@H]1NC(=O)[C@H](CC2CCNCC2)NC(=O)[C@@H](Cc2n[nH]c3ccccc23)NC(=O)[C@H](Cc2ccc(O)cc2)NC(=O)[C@H](CCCCNC(=O)CN2CCN3CCN4CCN(CC2)CC(=O)[O][Lu]([O]C(=O)C3)[O]C(=O)C4)N(C)C(=O)[C@H](Cc2ccccc2)NC1=O [RB-0006553] (cyclo(F[NMeK](DOTA(Lu))Y[X8][Ala(piperidin-4-yl)]T)),,,10 to 33.3
C[C@@H](O)[C@@H]1NC(=O)[C@H](CC2CCNCC2)NC(=O)[C@@H]([C@@H](C)c2c[nH]c3ccccc23)NC(=O)[C@H](Cc2ccc(O)cc2)NC(=O)[C@H](CCCCNC(=O)C23CCC(CNC(=O)CN4CCN5CCN6CCN(CC4)CC(=O)[O][Lu]([O]C(=O)C5)[O]C(=O)C6)(CC2)CC3)N(C)C(=O)[C@H](Cc2ccccc2)NC1=O [RB-0006558] (cyclo(F[NMeK](X10)Y[dTrp(βS-Me)][Ala(piperidin-4-yl)]T)),,,< 1
C[C@@H](O)[C@@H]1NC(=O)[C@H](CC2CCNCC2)NC(=O)[C@@H]([C@@H](C)c2c[nH]c3ccccc23)NC(=O)[C@H](Cc2ccc(O)cc2)NC(=O)[C@H](CCCCN(C)C(=O)CN2CCN3CCN4CCN(CC2)CC(=O)[O][Lu]([O]C(=O)C4)[O]C(=O)C3)N(C)C(=O)[C@H](Cc2ccccc2)NC1=O [RB-0006579] (cyclo(F[NMeLys(Me)](DOTA(Lu))Y[dTrp(βS-Me)][Ala(piperidin-4-yl)]T)),,,3.33 to 10
C[C@@H](O)[C@@H]1NC(=O)[C@H](CC2CCNCC2)NC(=O)[C@@H]([C@@H](C)c2c[nH]c3ccccc23)NC(=O)[C@H](Cc2ccc(O)cc2)NC(=O)[C@H](CCCCn2cc(CNC(=O)CN3CCN4CCN5CCN(CC3)CC(=O)[O][Lu]([O]C(=O)C4)[O]C(=O)C5)nn2)N(C)C(=O)[C@H](Cc2ccccc2)NC1=O [RB-0006591],,,3.33 to 10
